Results from patent publication US20160067272A1, “METHODS FOR TREATING IMMUNE DISEASES” (priority 2013, published 2016).

How the values were obtained:
naïve CD4+ T cells [1] = experiment: Naïve CD4+ T cell differentiation under Th1 polarizing conditions (ELISA, flow cytometry); assay type: cell-based, mouse
Procedure: (§1) The inventors next investigated whether NAD^− regulates CD4^+ T cell differentiation in Th1 polarizing conditions. Isolated naïve CD4^+ T cells were cultured with anti-CD3/CD28 antibodies in presence of recombinant IL-12 and IL-2 cytokines and anti-IL4 antibody. […] In contrast to Th0 polarizing conditions, NAD^+ induced a robust IL-10 secretion (>3500 pg/ml) in Th1 cytokine environment (FIG. 1A). Furthermore, pro-inflammatory cytokines such as TNF-α and IL-6 were reduced by NAD^+ (FIG. 7C). […] Furthermore, the study tested whether NAD^+ promoted the shift of human CD4^+ T helper cells in Th1 polarizing conditions towards IL-10 cytokine production. Human peripheral blood CD4^| T cells were activated with anti-CD3/CD28 antibodies under Th1 polarizing conditions (recombinant IL-12 and IL-2 cytokines and anti-IL4 antibody) with increasing concentrations of NAD+. After 96 hours of culture, CD4^+IL-10^+IFNγ^+ cell frequency was assessed by flow cytometry analysis.
(§2) Single-cell leukocyte suspensions were obtained from spleens from 8-10 week old DBA mice and CD4^− T cells were isolated by negative selection using a CD4^+ T cell isolation kit (MILTENYI BIOTEC, Bergisch Gladbach, Germany). Cells were further sorted using α-CD4-PE (EBIOSCIENCE, San Diego, Calif.) and purities of CD4^+ T cells after isolation were >98%.
(§3) All recombinant cytokines and antibodies were purchased from EBIOSCIENCE except recombinant TGF-β cytokine (R&D SYSTEMS, Minneapolis, Minn.). After 96 hrs of culture supernatants and cells were collected and analyzed by ELISA and flow cytometry, respectively.
(§4) Fluorescently labeled anti-mouse α-CD4 (GK1.5), α-CD25 (PC61), α-IFN-γ (XMG1.2) and unlabeled α-CD16/CD32 (2.4G2) antibodies were obtained from BD BIOSCIENCES (San Jose, Calif.). Fluorescently labeled anti-mouse α-IL-4 (FJK-16s), α-IL-10 (JES5-16E3), α-IL-17A (eBio17B7), and anti-TGFβ (TW7-16B4) were obtained from eBIOSCIENCE (San Diego, Calif.). Intracellular staining for IL-4, IL-10, IL-17A, IFNγ and TGFβ was performed according to manufacturers' protocols. Splenocytes were re-stimulated in complete media (RPMI media containing 10% FCS, 1% L-Glutamine, 1% Penicillin/Streptomycin; all Bio Whittaker, Walkersville, Md.) for 4 hours at 37° C. with ionomycin, phorbol 12-myristate 13-acetate and Brefelding A (EBIOSCIENCE). Cells were fixed and permeabilized using CYTOFIX/CYTOPERM solution (BD BIOSCIENCES). Flow cytometry measurements of single-cell suspensions were performed on a FACSCalibur using standard procedures and data were analyzed using FLOWJO software (TREE STAR, Ashland, Oreg.).

[2] = system: Human peripheral blood CD4+ T cells; experiment: Human CD4+ T cells under Th1 polarizing conditions (flow cytometry); assay type: cell-based; conditions: increasing NAD+
Procedure: as §1, with “analysis. […]” for “analysis.”
as §3

naïve CD4+ T cells [3] = experiment: Naïve CD4+ T cell differentiation without polarizing cytokines (Th0); assay type: cell-based, mouse
Procedure: It has been shown that NAD^+ can regulate T cell activation^36-38, but its role in T cell development was not shown. In this study, it was tested whether NAD^+ was able to regulate T cell differentiation in vitro. Naïve CD4^+ T cells were isolated from spleen of DBA mice and cultured for 96 hrs in presence of increasing NAD^+ concentration and in presence of recombinant IL-2 and stimulated with anti-CD3/CD28 antibodies. Cytokine expression and secretion were analyzed by flow cytometry and ELISA, respectively. […] Of note, the production of pro-inflammatory cytokines such as IL-6 and TNF-α or the immunosuppressive cytokine IL-10 were inhibited by NAD^| (FIG. 7A).
as §2, §3, §4

naïve CD4+ T cells [4] = experiment: Naïve CD4+ T cell differentiation under iTreg polarizing conditions; assay type: cell-based, mouse
Excerpt: Next, it was investigated whether NAD^+ modulates CD4^+ T differentiation under iTreg polarizing conditions. Isolated naïve CD4^+ T cells were activated with anti-CD3/CD28 antibodies in presence of recombinant TGFβ and IL-2 cytokines and blocking anti-IL-4, anti-IL-12 and anti-IFNγ antibodies.
as §2, §3, §4

[5] = system: C57Bl/6 mice, OVA-induced allergy; experiment: Allergic mouse model (ovalbumin); assay type: in vivo
Procedure: FIGS. 20A-20C depicts data from an experiment where allergy was induced in mice (C57B1/6) with intraperitoneal injections of OVA at day 1, 7, 14 and 21. Mice were treated with OVA or a placebo solution (PBS). […] NAD+ can therefore be used in chronic inflammation and allergy such as chronic obstructive pulmonary disease and atopic disorders.
The top panel of the figure is a schematic depicting the experimental protocol.
It is understood in a clinical setting that immunosuppressants are unable to specifically target activated/memory CD4+ T cells. Thus, the inventors next investigated the specificity of NAD+ using an allergic mouse model consisting of several intraperitoneal (i.p.) injections of ovalbumin (OVA) with Alumn. As a control, a group of mice received a placebo solution (PBS). In addition, to assess the specific effect of NAD+ on CD4+CD44^highCD62L^high activated/memory T cells, a group of mice received OVA followed by NAD+ injection.

C57BL/6 mice = conditions: mouse, in vivo, ip
Procedure: C57BL/6 mice (8-10 weeks old) were daily administered 60 mg of NAD^+ or a placebo solution (PBS) intraperitoneally during 4 days. Blood and spleen were collected after 4 days of treatment. Absolute number of lymphocytes in the blood was determined using a hemocytometer (model 850 FS, Drew Scientific, Miami lakes, Fla.). To determine absolute lymphocyte number in spleens, cells were isolated and counted with a hemocytometer then stained with antibodies anti-CD4^+, CD3^+ or B220^+ and percentage was determined by flow analysis.

[6] = OVA i.p. day 1, 7, 14 and 21, with NAD+

NC(=O)c1ccc[n+]([C@@H]2O[C@H](COP(=O)([O-])OP(=O)(O)OC[C@H]3O[C@@H](n4cnc5c(N)ncnc54)[C@H](O)[C@@H]3O)[C@@H](O)[C@H]2O)c1 [NAD+, nicotinamide adenine dinucleotide]
IFN-γ cytokine production (naïve CD4+ T cells [1]; 96 hrs, ELISA): did not change
IL-6 production (naïve CD4+ T cells [1]; 96 hrs, ELISA): reduced
IL-10 secretion (naïve CD4+ T cells [1]; 96 hrs, ELISA): > 3500 pg/mL
IL-17A cytokine production (naïve CD4+ T cells [1]; 96 hrs, ELISA): 400 pg/mL
TNF-α production (naïve CD4+ T cells [1]; 96 hrs, ELISA): reduced
IL-10 production by Th1-IFN-γ producing cells (naïve CD4+ T cells [1]; flow cytometry): promoted
frequency of CD4+IFN-γ cells (naïve CD4+ T cells [1]; flow cytometry): increased frequencies
frequency of CD4+IL17A+ cells (naïve CD4+ T cells [1]; flow cytometry): increased frequencies
frequency of CD4+IL-10+ cells (naïve CD4+ T cells [1]; flow cytometry): increased frequencies
IL-17A [2]: moderate increase
IL-10 cytokine production by CD4+IFN-γ producing cells ([2]; flow cytometry): robust IL-10 cytokine production
IFNγ cytokine production (naïve CD4+ T cells [3]; Th0, 96 hrs, ELISA): promote a robust
IL-4 cytokine production (naïve CD4+ T cells [3]; Th0, 96 hrs, ELISA): inhibit
IL-6 production (naïve CD4+ T cells [3]; Th0, 96 hrs, ELISA): inhibited
IL-10 production (naïve CD4+ T cells [3]; Th0, 96 hrs, ELISA): inhibited
IL-17 cytokine production (naïve CD4+ T cells [3]; Th0, 96 hrs, ELISA): promote a robust
TNF-α production (naïve CD4+ T cells [3]; Th0, 96 hrs, ELISA): inhibited
CD4+IFNγ+ cell frequency (naïve CD4+ T cells [3]; Th0, flow cytometry): increased
CD4+IL-4+ cell frequency (naïve CD4+ T cells [3]; Th0, flow cytometry): reduced
CD4+IL-17+ cell frequency (naïve CD4+ T cells [3]; Th0, flow cytometry): increased
TGFβ production (naïve CD4+ T cells [3]; Th0 polarizing conditions): no TGFβ production
amount of TGFβ (naïve CD4+ T cells [4]): reduced amount
IL-6 production (naïve CD4+ T cells [4]; ELISA): remained unchanged
IL-10 secretion (naïve CD4+ T cells [4]; ELISA): reduced
IL-17A cytokine production (naïve CD4+ T cells [4]; ELISA): increased
TNF-α production (naïve CD4+ T cells [4]; ELISA): inhibited
frequency of CD4+IL10+ cells (naïve CD4+ T cells [4]; flow cytometry): robust decreased frequency
frequency of CD4+IL17A+ cells (naïve CD4+ T cells [4]; flow cytometry): increased frequency
number of CD4+TGFβ+IL-10+ cells (naïve CD4+ T cells [4]; flow cytometry): decreased number
CD4+CD44highCD62Lhigh activated/memory T cell frequency ([5]; OVA followed by NAD+ injection, after 21 days): targets specifically
frequencies of effector T cells induced by the antigen [5, 6]: reduces specifically
frequencies of mature B cells induced by the antigen [5, 6]: reduces specifically
absolute number of circulating lymphocytes in the blood and spleens (C57BL/6 mice): did not affect
